Patent US11766414B2, “Compositions, delivery systems, and methods useful in tumor therapy” (Indi Molecular, Inc., priority 2020, dated 2023)
Where two headings read alike, the source gives them in different places. Starred links: 1 amine or outer side, 2 acyl side, 3 side chain; linkers in the order of their positions; H or OH if unused. Positions of bridges follow the written chain, without caps; N, C: chain ends. Non-standard residues stand in square brackets, D forms with d. Residues, ends and D or L forms follow the SMILES beside them. Triazole bridges read from a SMILES are 1,4-linked. *: point of attachment. DOTA = O=C(O)CN1CCN(CC(=O)O)CCN(CC(=O)*)CCN(CC(=O)O)CC1; Pteroyl = Nc1nc2ncc(CNc3ccc(C(=O)*)cc3)nc2c(=O)[nH]1; Biotin = O=C1N[C@H]2[C@H](CS[C@H]2CCCCC(=O)*)N1; PEG10 = NCCOCCOCCOCCOCCOCCOCCOCCOCCOCCOCCC(=O)O; Butanoyl(4-(4-MePh)) = Cc1ccc(CCCC(=O)*)cc1; Lys(N3) = [N-]=[N+]=NCCCC[C@H](N)C(=O)O; γGlu = O=C(O)[C@H](CCC(=O)[*:2])N[*:1]; PEG7 = NCCOCCOCCOCCOCCOCCOCCOCCC(=O)O; AEEEA = NCCOCCOCCOCC(=O)O; Pra = C#CC[C@H](N)C(=O)O; X1 = NOCC(=O)*

What was measured:
FOLR1 = FOLR1 (Homo sapiens, UniProt P15328); test: ELISA assay of FOLR1 binding
FOLR1, sequence (P15328 25-234): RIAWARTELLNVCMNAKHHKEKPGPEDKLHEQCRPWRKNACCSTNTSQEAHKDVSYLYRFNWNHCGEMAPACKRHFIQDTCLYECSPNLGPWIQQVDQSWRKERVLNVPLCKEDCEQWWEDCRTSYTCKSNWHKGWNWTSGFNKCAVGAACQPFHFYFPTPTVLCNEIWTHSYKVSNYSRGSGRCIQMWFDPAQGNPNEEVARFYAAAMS
Description: FIG. 5 is a diagram of ELISA assay of FOLR1 binding of heterobiligands.

[1] = Plasma protein binding, CD-1 mouse plasma; assay type: in vitro ADME
Method: (§1) HTD 96 a/b regenerated cellulose membrane strips with mass cutoff of 12-14 kDa were soaked in ultra-pure water at room temperature for 1 hour. Each swelled membrane was then soaked in 20:80 ethanol:water for 20 minutes.
(§2) Just prior to the experiment, the membranes were re-soaked in ultra-pure water. Plasma was prepared by thawing under cold water. The plasma was centrifuged to remove any clots and pH was adjusted to 7.0-8.0. Test articles and control compounds were diluted to 2 μM. The dialysis device was loaded by transferring 150 μL of the test article (in triplicate) to the donor side. The dialysis device was placed in a humidified incubator at 37° C. with 5% CO2 in a shaking platform that rotated slowly for 4 hours. After incubation, 50 μL of the supernatant was taken from both sides and analyzed by LC-MS/MS.

[2] = Plasma protein binding, human plasma; assay type: in vitro ADME
Method: as §1, §2

human recombinant NEP = human recombinant NEP (Homo sapiens, UniProt P08473); test: NEP enzymatic cleavage assay (MALDI, HPLC); assay type: biochemical; conditions: for NEP-mediated cleavage: MALDI
human recombinant NEP, sequence (P08473 whole entry): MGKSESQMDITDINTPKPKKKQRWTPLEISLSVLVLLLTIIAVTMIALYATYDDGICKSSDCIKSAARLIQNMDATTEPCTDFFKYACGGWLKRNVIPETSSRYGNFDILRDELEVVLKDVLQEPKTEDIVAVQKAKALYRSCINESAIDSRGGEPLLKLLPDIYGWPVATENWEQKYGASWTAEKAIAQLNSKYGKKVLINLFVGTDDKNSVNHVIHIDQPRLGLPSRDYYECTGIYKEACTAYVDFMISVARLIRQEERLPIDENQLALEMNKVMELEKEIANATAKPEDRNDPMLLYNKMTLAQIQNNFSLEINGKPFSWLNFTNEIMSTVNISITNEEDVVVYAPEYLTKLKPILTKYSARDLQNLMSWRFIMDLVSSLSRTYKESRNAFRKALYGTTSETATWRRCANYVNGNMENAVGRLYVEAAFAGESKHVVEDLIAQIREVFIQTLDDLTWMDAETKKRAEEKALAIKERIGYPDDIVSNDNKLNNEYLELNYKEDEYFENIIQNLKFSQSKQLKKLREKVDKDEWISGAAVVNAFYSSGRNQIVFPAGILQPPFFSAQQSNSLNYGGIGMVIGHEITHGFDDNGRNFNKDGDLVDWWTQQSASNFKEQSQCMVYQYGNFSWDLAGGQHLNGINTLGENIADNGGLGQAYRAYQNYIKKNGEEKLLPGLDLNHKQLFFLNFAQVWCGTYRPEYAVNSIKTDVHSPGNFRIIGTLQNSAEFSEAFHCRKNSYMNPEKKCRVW
Method: In order to test the susceptibility of GFK and MVK linkers to NEP-mediated cleavage, the peptide (Folate-hshta-Lys(MPBA)-Gly-Phe-Lys(DOTA) (SEQ ID NO:6)) was incubated with human recombinant NEP and analyzed the solution for the presence of cleaved adducts. MALDI was utilized to monitor the cleavage of a PCC heterobiligand that contains a NEP protease recognizable sequence (G-F-K). The PCC concentration was constant and the NEP concentration was titrated down from 10 nM to 1 nM, 0.1 nM, 0.01 nM, and no NEP. The NEP-mediated cleaved adduct was identified by mass. 10 μM PCC containing the GFK linker was combined with varying amounts of NEP. […] Below 0.1 nM no cleavage was observed. • Folate-hshta-Lys(MPBA)-Gly-Phe-Lys(DOTA) (SEQ ID NO:6) • Molecular weight 2231.42
The NEP-mediated cleavage was also monitored by HPLC. In agreement with the MALDI spectra, the HPLC chromatograms show depletion of the parent brush-border heterobiligand (retention time 17.1 minutes), dose-dependent on the amount of NEP spiked into the sample (10 nM, 1 nM, 0.1 nM, 0.01 nM, and no NEP). An appearance of a new peak (retention time 16.5 minutes) in concert with the depletion of the starting material is presumed to be the cleaved folate-containing peptide.
In order to test the specificity of NEP, a non-cleavable linker (PEG3) was also assayed.
To reduce the radioactive dose to the kidney, Indi ^177Lu-7327 was constructed to incorporate a GFK linker that is susceptible to cleavage by enzymes found predominately in the kidney's brush border. These enzymes cleave off the radionuclide-chelator complex, which is quickly eliminated by the kidney for excretion in the urine. The zinc metalloprotease neprilysin (NEP) is expressed with high abundance in the kidney. […] To confirm NEP-mediated cleavage of the GFK linker in Indi 7327, the peptide was incubated with recombinant human NEP at 37° C. for 1 h and analyzed by matrix-assisted laser desorption/ionization mass spectrometry (MALDI-MS) for the evolution of cleaved adducts (FIG. 42). […] The expected cleaved adduct (mass: 1283.16 m/z) appears in the samples containing 10, 1.0, and 0.1 nM NEP. […] Below 0.1 nM NEP, no cleavage was observed. In addition to confirming the selectivity of NEP for the GFK linker, it is also important to note that the remaining portions of the Indi 7327 were impervious to the enzyme.

## C[C@H](O)[C@H]1NC(=O)[C@@H](Cc2c[nH]cn2)NC(=O)[C@@H](CO)NC(=O)[C@@H](Cc2c[nH]cn2)NC(=O)[C@@H](NC(=O)CNC(=O)CC[C@H](NC(=O)c2ccc(NCc3cnc4nc(N)[nH]c(=O)c4n3)cc2)C(=O)O)Cc2cn(nn2)CCCC[C@@H](C(=O)NCCOCCOCCOCCOCCOCCOCCOCCOCCOCCOCCC(=O)NCCOCCOCCOCCOCCOCCOCCOCCOCCOCCOCCC(=O)N[C@@H](CCCCNC(=O)CCCC[C@@H]2SC[C@@H]3NC(=O)N[C@@H]32)C(N)=O)NC(=O)[C@@H](C)NC1=O [Folate-Gly-hshta] ({Pteroyl-γGlu}-G[Pra][dH][dS][dH][dT][dA][Lys(N3)][PEG10][PEG10]K(Biotin)-NH2; triazole 2-8)
FOLR1; read-out: EC50 (ELISA, FOLR1)
  EC50: 0.9 nM

## C[C@H](O)[C@H]1NC(=O)[C@@H](Cc2c[nH]cn2)NC(=O)[C@@H](CO)NC(=O)[C@@H](Cc2c[nH]cn2)NC(=O)[C@@H](NC(=O)CCOCCOCCOCCOCCOCCOCCOCCNC(=O)CC[C@H](NC(=O)c2ccc(NCc3cnc4nc(N)[nH]c(=O)c4n3)cc2)C(=O)O)Cc2cn(nn2)CCCC[C@@H](C(=O)NCCOCCOCCOCCOCCOCCOCCOCCOCCOCCOCCC(=O)NCCOCCOCCOCCOCCOCCOCCOCCOCCOCCOCCC(=O)N[C@@H](CCCCNC(=O)CCCC[C@@H]2SC[C@@H]3NC(=O)N[C@@H]32)C(N)=O)NC(=O)[C@@H](C)NC1=O [Folate-PEG7-hshta] ({Pteroyl-γGlu-PEG7}-[Pra][dH][dS][dH][dT][dA][Lys(N3)][PEG10][PEG10]K(Biotin)-NH2; triazole 1-7)
FOLR1; read-out: EC50 (ELISA, FOLR1)
  EC50: 1 nM

## C[C@H](O)[C@H]1NC(=O)[C@@H](Cc2c[nH]cn2)NC(=O)[C@@H](CO)NC(=O)[C@@H](Cc2c[nH]cn2)NC(=O)[C@@H](NC(=O)[C@H]2CCCN2C(=O)CC[C@H](NC(=O)c2ccc(NCc3cnc4nc(N)[nH]c(=O)c4n3)cc2)C(=O)O)Cc2cn(nn2)CCCC[C@@H](C(=O)NCCOCCOCCOCCOCCOCCOCCOCCOCCOCCOCCC(=O)NCCOCCOCCOCCOCCOCCOCCOCCOCCOCCOCCC(=O)N[C@@H](CCCCNC(=O)CCCC[C@@H]2SC[C@@H]3NC(=O)N[C@@H]32)C(N)=O)NC(=O)[C@@H](C)NC1=O [Folate-Pro-hshta] ({Pteroyl-γGlu}-[dP][Pra][dH][dS][dH][dT][dA][Lys(N3)][PEG10][PEG10]K(Biotin)-NH2; triazole 2-8)
FOLR1; read-out: EC50 (ELISA, FOLR1)
  EC50: 0.9 nM

## C[C@H](O)[C@H]1NC(=O)[C@@H](Cc2ccc(O)cc2)NC(=O)[C@@H](CCCNC(=N)N)NC(=O)[C@@H](CCC(=O)O)NC(=O)[C@@H](CC(=O)O)NC(=O)[C@@H](NC(=O)[C@H](Cc2cn(CCOCCOCCOCCNC(=O)CC[C@H](NC(=O)c3ccc(NCc4cnc5nc(N)[nH]c(=O)c5n4)cc3)C(=O)O)nn2)NC(=O)CCOCCOCCOCCOCCOCCOCCOCCOCCOCCOCCNC(=O)CCOCCOCCOCCOCCOCCOCCOCCOCCOCCOCCNC(=O)CCCC[C@@H]2SC[C@@H]3NC(=O)N[C@@H]32)Cc2cn(nn2)CCCC[C@@H](C(N)=O)NC1=O [Pra(Az4-PEG3-folate)-deryt]
FOLR1; read-out: EC50 (ELISA, FOLR1)
  EC50: 0.27 nM

## C[C@H](O)[C@H]1NC(=O)[C@@H](Cc2cnc[nH]2)NC(=O)[C@@H](CO)NC(=O)[C@@H](Cc2cnc[nH]2)NC(=O)[C@@H](NC(=O)CC[C@H](NC(=O)c2ccc(NCc3cnc4nc(N)[nH]c(=O)c4n3)cc2)C(=O)O)Cc2cn(nn2)CCCC[C@@H](C(=O)NCCOCCOCCOCC(=O)N[C@@H](CCCCNC(=O)CON)C(N)=O)NC(=O)[C@@H](C)NC1=O [compound 0328, Fol-hshta-PEG3-Lys(AO)] ({Pteroyl-γGlu}-[Pra][dH][dS][dH][dT][dA][Lys(N3)][AEEEA]K(X1)-NH2; triazole 1-7)
[1]; CD-1, mouse, plasma, AO-containing constructs, (FB), read-out: Plasma % Bound, Mu
  fraction unbound at 4 h, 2 μM: 0.798
[1]; CD-1, mouse, plasma, AO-containing constructs, (FB), read-out: Plasma protein binding % Recovery, Mu
  recovery at 4 h, 2 μM: 115%
[2]; human, plasma, AO-containing constructs, (FB), read-out: Plasma % Bound, Hu
  fraction unbound at 4 h, 2 μM: 0.57
[2]; human, plasma, AO-containing constructs, (FB), read-out: Plasma protein binding % Recovery, Hu
  recovery at 4 h, 2 μM: 85%

## C[C@H](O)[C@H]1NC(=O)[C@@H](Cc2c[nH]cn2)NC(=O)[C@@H](CO)NC(=O)[C@@H](Cc2c[nH]cn2)NC(=O)[C@@H](NC(=O)CC[C@H](NC(=O)c2ccc(NCc3cnc4nc(N)[nH]c(=O)c4n3)cc2)C(=O)O)Cc2cn(nn2)CCCC[C@@H](C(=O)NCCOCCOCCOCC(=O)N[C@@H](CCCCNC(=O)CN2CCN(CC(=O)O)CCN(CC(=O)O)CCN(CC(=O)O)CC2)C(N)=O)NC(=O)[C@@H](C)NC1=O [compound 1189, Fol-hshta-PEG3-Lys(DOTA)] ({Pteroyl-γGlu}-[Pra][dH][dS][dH][dT][dA][Lys(N3)][AEEEA]K(DOTA)-NH2; triazole 1-7)
[1]; CD-1 mouse plasma, read-out: Plasma % Bound, Mu (converted)
  fraction unbound: 0.705
[1]; CD-1 mouse plasma, read-out: Plasma protein binding % Recovery, Mu
  recovery: 97.4%
[2]; human plasma, read-out: Plasma protein binding % Recovery, Hu
  recovery: 102%
[2]; human, plasma, human plasma, read-out: Plasma % Bound, Hu (converted)
  fraction unbound: 0.54

## Cc1ccc(CCCC(=O)NCCCC[C@H](NC(=O)[C@@H]2CCCCn3cc(nn3)C[C@H](NC(=O)CC[C@H](NC(=O)c3ccc(NCc4cnc5nc(N)[nH]c(=O)c5n4)cc3)C(=O)O)C(=O)N[C@H](Cc3cnc[nH]3)C(=O)N[C@H](CO)C(=O)N[C@H](Cc3cnc[nH]3)C(=O)N[C@H]([C@H](C)O)C(=O)N[C@H](C)C(=O)N2)C(=O)NCC(=O)N[C@@H](Cc2ccccc2)C(=O)N[C@@H](CCCCNC(=O)CON)C(=O)O)cc1 [compound 3304, Fol-hshta-Lys(4-MPBA)-Gly-Phe-Lys(AO)] ({Pteroyl-γGlu}-[Pra][dH][dS][dH][dT][dA][Lys(N3)]K(Butanoyl(4-(4-MePh)))GFK(X1)-OH; triazole 1-7)
Human recombinant NEP; Table 7, AO-containing constructs
  in vitro Assay Data (NEP assay): Cleavage of —G—F—K-

## C[C@H](O)[C@H]1NC(=O)[C@@H](Cc2c[nH]cn2)NC(=O)[C@@H](CO)NC(=O)[C@@H](Cc2c[nH]cn2)NC(=O)[C@@H](NC(=O)CC[C@H](NC(=O)c2ccc(NCc3cnc4nc(N)[nH]c(=O)c4n3)cc2)C(=O)O)Cc2cn(nn2)CCCC[C@@H](C(=O)NCC(=O)N[C@@H](Cc2ccccc2)C(=O)N[C@@H](CCCCNC(=O)CN2CCN(CC(=O)O)CCN(CC(=O)O)CCN(CC(=O)O)CC2)C(=O)O)NC(=O)[C@@H](C)NC1=O [compound 7327, folate-hshta-Gly-Phe-Lys(DOTA)] ({Pteroyl-γGlu}-[Pra][dH][dS][dH][dT][dA][Lys(N3)]GFK(DOTA)-OH; triazole 1-7)
Human recombinant NEP
  site of neprilysin cleavage: cleaved at the amide bond between Gly and Phe
Human recombinant NEP; 1 nM and 0.1 nM NEP
  NEP-mediated cleavage: partial cleavage
Human recombinant NEP; 10 nM NEP
  NEP-mediated cleavage: complete consumption of the peptide
Human recombinant NEP; Table 2
  in vitro Assay Data (NEP assay): Cleavage of -G-F-K-
Human recombinant NEP; below 0.1 nM NEP
  NEP-mediated cleavage: no cleavage

## C[C@H](O)[C@H]1NC(=O)[C@@H](Cc2ccc(O)cc2)NC(=O)[C@@H](CCCNC(=N)N)NC(=O)[C@@H](CCC(=O)O)NC(=O)[C@@H](CC(=O)O)NC(=O)[C@@H](NC(=O)COCCOCCOCCNC(=O)CCCC[C@@H]2SC[C@@H]3NC(=O)N[C@@H]32)Cc2cn(nn2)CCCC[C@@H](C(N)=O)NC1=O [deryt] ({Biotin-AEEEA}-[Pra][dD][dE][dR][dY][dT][Lys(N3)]-NH2; triazole 1-7)
FOLR1; PCC alone, read-out: EC50
  EC50: 10000 nM
